# Reference: patent US20240016831A1 (priority 2020, published 2024)
# Format: physicochemical
# Details: pH 3
row,Compound,amounts of nitric oxide generated (cumulative NO evolved)
1,"OC[C@@H](O)[C@@H](O)[C@H](O)[C@H](O)CO [mannitol, D-mannitol]",markedly greater amounts of nitric oxide
2,OC[C@@H](O)[C@@H](O)[C@H](O)[C@@H](O)CO [sorbitol],markedly greater amounts of nitric oxide
